Results taken from the NIST ThermoML archive (doi:10.1016/j.jct.2018.11.014).

Experiment: molar heat capacity at constant pressure
Settings: 101.33 kPa, Crystal, Vacuum adiabatic calorimetry

O=C(CO)[C@H](O)[C@H](O)[C@H](O)CO [D-psicose]
Settings	molar heat capacity at constant pressure [J/K/mol]
123.06 K	95.25
123.75 K	95.92
124.29 K	96.23
124.5 K	96.3
125.14 K	96.92
125.8 K	97.36
125.92 K	97.34
126.54 K	97.93
127.3 K	98.49
127.33 K	98.38
127.93 K	98.98
128.73 K	99.42
128.78 K	99.54
129.31 K	99.93
130 K	100.42
130.16 K	100.47
130.29 K	100.63
130.71 K	100.99
131.62 K	101.53
131.84 K	101.76
132.14 K	102.08
133.07 K	102.57
133.37 K	102.87
133.59 K	103.04
134.51 K	103.62
134.89 K	103.97
135.06 K	104.17
135.94 K	104.68
136.44 K	105.12
136.51 K	105.24
137.4 K	105.69
137.99 K	106.23
138.07 K	106.25
138.89 K	106.78
139.5 K	107.37
139.73 K	107.46
140 K	107.65
140.36 K	107.86
141 K	108.43
141.38 K	108.63
141.83 K	108.94
142.49 K	109.66
143.02 K	109.81
143.29 K	109.97
143.97 K	110.56
144.64 K	111.02
144.78 K	111.03
145.47 K	111.62
146.29 K	112.11
146.3 K	112.15
147.05 K	112.77
147.84 K	113.18
147.99 K	113.34
148.65 K	113.9
149.42 K	114.29
149.66 K	114.52
150 K	114.81
150.25 K	115.05
150.99 K	115.45
151.33 K	115.73
151.83 K	116.23
152.59 K	116.62
152.98 K	116.92
153.45 K	117.32
154.22 K	117.72
154.66 K	118.11
155.09 K	118.5
155.87 K	118.94
156.38 K	119.3
156.72 K	119.64
157.54 K	120.08
158.08 K	120.68
158.34 K	120.83
159.19 K	121.26
159.8 K	121.76
159.95 K	121.9
160 K	121.93
160.88 K	122.45
161.55 K	122.94
161.59 K	123.12
162.65 K	123.73
163.25 K	124.33
163.33 K	124.2
164.46 K	125
164.91 K	125.57
165.14 K	125.56
166.25 K	126.31
166.6 K	126.8
166.94 K	126.82
168.04 K	127.62
168.33 K	127.92
168.72 K	128.08
169.85 K	128.88
170 K	129.01
170.09 K	129.15
170.5 K	129.38
171.7 K	130.21
171.88 K	130.42
172.31 K	130.62
173.54 K	131.46
173.65 K	131.69
174.14 K	131.92
175.36 K	132.69
175.42 K	132.94
175.97 K	133.17
177.18 K	134.01
177.23 K	134.2
177.78 K	134.49
179.06 K	135.42
179.11 K	135.51
179.59 K	135.75
180 K	136.08
181.01 K	136.76
181.03 K	136.92
181.46 K	137.08
182.93 K	138.2
182.95 K	138.09
183.4 K	138.47
184.83 K	139.53
184.88 K	139.49
185.32 K	139.84
186.71 K	140.84
186.79 K	140.88
187.28 K	141.21
188.62 K	142.21
188.74 K	142.23
189.26 K	142.58
190 K	143.15
190.56 K	143.63
190.71 K	143.67
191.28 K	144.05
192.49 K	144.97
192.68 K	145.06
193.32 K	145.45
194.41 K	146.37
194.63 K	146.4
195.35 K	146.92
196.32 K	147.62
196.58 K	147.65
197.38 K	148.33
198.25 K	149.1
198.55 K	149.16
199.39 K	149.76
200 K	150.21
200.22 K	150.43
200.55 K	150.56
201.43 K	151.19
202.17 K	151.83
202.58 K	152.06
203.5 K	152.67
204.12 K	153.18
204.65 K	153.53
205.56 K	154.09
206.7 K	154.98
207.61 K	155.56
208.78 K	156.4
209.65 K	157.04
210 K	157.3
210.89 K	157.92
211.72 K	158.49
212.99 K	159.44
213.81 K	160.01
215.07 K	160.9
215.9 K	161.43
217.15 K	162.36
217.98 K	163.06
219.31 K	163.88
220 K	164.4
220.04 K	164.46
221.53 K	165.48
222.21 K	165.84
223.74 K	167.09
224.47 K	167.6
225.94 K	168.64
226.71 K	169.21
228.14 K	170.2
228.95 K	170.75
230 K	171.54
230.36 K	171.83
231.25 K	172.46
232.61 K	173.46
233.65 K	174.15
234.87 K	174.98
236.07 K	175.9
237.14 K	176.72
238.49 K	177.45
239.4 K	178.38
240 K	178.72
240.95 K	179.37
241.69 K	179.82
243.45 K	181.14
244.01 K	181.62
245.99 K	183.07
246.32 K	183.25
248.54 K	184.87
248.61 K	184.95
250 K	185.94
250.9 K	186.65
251.09 K	186.81
253.21 K	188.45
253.63 K	188.66
255.55 K	189.85
256.15 K	190.4
257.88 K	191.75
258.7 K	192.25
260 K	193.15
260.93 K	193.78
263.32 K	195.6
265.71 K	197.22
268.09 K	199.02
270 K	200.36
270.5 K	200.87
272.99 K	202.45
275.52 K	204.17
278.04 K	206.05
280 K	207.59
280.55 K	207.87
281.85 K	208.9
282.34 K	209.34
283.14 K	209.63
284.44 K	210.76
284.81 K	211
285.82 K	211.74
287.07 K	212.81
287.31 K	212.9
288.48 K	213.7
289.68 K	214.75
289.9 K	214.79
290 K	214.85
291.13 K	215.63
292.28 K	216.49
292.52 K	216.73
293.77 K	217.6
294.87 K	218.44
295.13 K	218.64
296.44 K	219.94
297.49 K	220.33
298.15 K	220.79
299.14 K	221.01
300 K	222.14
300.13 K	222.34
301.82 K	223.5
302.77 K	224.25
304.49 K	225.49
305.39 K	226.09
307.15 K	227.47
308 K	228.01
309.84 K	229.4
310 K	229.48
310.63 K	229.95
312.56 K	231.38
313.29 K	231.87
315.26 K	233.4
315.94 K	233.92
318.01 K	235.4
318.58 K	235.78
320 K	236.88
320.81 K	237.33
321.2 K	237.81
323.64 K	239.66
323.85 K	239.71
326.49 K	241.59
326.53 K	241.79
329.19 K	243.75
329.33 K	243.86
330 K	244.34
